Source: article PMC11062899, “De novo development of small cyclic peptides that are orally bioavailable” (Nature Chemical Biology, 2023)
Several values for one entry are separate records, joined by “and”; a condition that tells them apart may be missing. Equal values may be shown once. Read-outs that look alike come from different tables or passages of the source.

How the values were obtained:
rat α-thrombin = biological target: T1, rat α-thrombin (Rattus norvegicus, UniProt P18292); assay: Protease inhibition, Ki for rat α-thrombin (fluorogenic substrate Z-Gly-Gly-Arg-AMC); format: biochemical; conditions: for Rat alpha thrombin inhibition, slope normalized to DMSO: replicates R1-R3
T1 construct: rat α-thrombin (Molecular Innovations) were used at final concentrations of 2 nM and 3 nM; purchased Molecular Innovations
Protocol: (§1) The inhibition constants (Ki) of cyclic peptides were calculated by measuring thrombin inhibition in the presence of different concentrations of the cyclic peptides. […] Human α-thrombin (Molecular Innovations) and rat α-thrombin (Molecular Innovations) were used at final concentrations of 2 nM and 3 nM, respectively, and fluorogenic substrate (Z-Gly-Gly-Arg-AMC, Bachem) was used at a concentration of 50 μM. Enzymatic activity was determined by measuring fluorescent gain on a Tecan Infinite M200 Pro microplate reader (excitation: 360 nm, emission: 465 nm) or a PHERAstar FSX microplate reader (excitation: 380 nm, emission: 440 nm) for 30 min at 25 °C with a fluorescent readout every 3 min. The two instruments were controlled with Tecan Infinite M200 Pro instrument software (iControl, version 1.12) and PHERAstar FSX software (version 5.70, edition 8), respectively. Protease inhibition was calculated by comparing the enzymatic activity to a control without cyclic peptide.
(§2) Half maximal inhibitory concentration (IC50) values were determined using a four-parameter logistic regression model in GraphPad Prism 9 to fit sigmoidal curves to the acquired data points according to equation (2) below.2 y=b+a−b/1+10^(logIC50−x)p where a and b represent the measured inhibition maximum and minimum, respectively; x is the logarithm of peptide concentration; y is the thrombin activity compared to a control without the cyclic peptide; and p is the Hill coefficient.
(§3) Ki values were calculated using the IC50 and the Cheng–Prusoff equation (equation (3)).3 Ki=IC50/1+S0/Km where Km is the Michaelis–Menten constant of the enzyme for the substrate used in the assay, and [S]0 is the initial substrate concentration.

human α-thrombin = human α-thrombin (Homo sapiens, UniProt P00734); assay: Protease inhibition, Ki for human α-thrombin (fluorogenic substrate Z-Gly-Gly-Arg-AMC); format: biochemical; conditions: for Human alpha thrombin inhibition, slope normalized to DMSO: replicates R1-R3
Protocol: as §1, §2, §3

[1] = Passive artificial membrane permeability (PAMPA);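 on Permeability% Average: top well sample relative to theoretical equilibrium sample by TIC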
[2] = peptide concentration 1.00E+02 uM
[3] = peptide concentration 1.19E-05 uM
[4] = peptide concentration 1.22E-02 uM
[5] = peptide concentration 1.25E+01 uM
[6] = peptide concentration 1.53E-03 uM
[7] = peptide concentration 1.56E+00 uM
[8] = peptide concentration 1.91E-04 uM
[9] = peptide concentration 1.95E-01 uM
[10] = peptide concentration 2.38E-05 uM
[11] = peptide concentration 2.44E-02 uM
[12] = peptide concentration 2.50E+01 uM
[13] = peptide concentration 3.05E-03 uM
[14] = peptide concentration 3.12E+00 uM
[15] = peptide concentration 3.81E-04 uM
[16] = peptide concentration 3.91E-01 uM
[17] = peptide concentration 4.77E-05 uM
[18] = peptide concentration 4.88E-02 uM
[19] = peptide concentration 5.00E+01 uM
[20] = peptide concentration 6.10E-03 uM
[21] = peptide concentration 6.25E+00 uM
[22] = peptide concentration 7.63E-04 uM
[23] = peptide concentration 7.81E-01 uM
[24] = peptide concentration 9.54E-05 uM
[25] = peptide concentration 9.77E-02 uM

In the case of `O=C1C[C@H]2CCCN2C(=O)[C@H](Cc2ccccc2)NC(=O)[C@@H](NC(=O)c2ccc(Cl)s2)CCCC=CCCCCN1` [compound 44], the Ki (rat α-thrombin; average of R1-R3, read-out: Rat alpha thrombin inhibition, Ki Average) is reported as 0.252 µM, the “Rat alpha thrombin inhibition, slope normalized to DMSO” value (rat α-thrombin; [2]) is reported as 7.5 and 5.2 and 7.4 and the “Rat alpha thrombin inhibition, slope normalized to DMSO” value (rat α-thrombin; [3]) is reported as 101.0 and 99.4 and 101.8. For the same compound, the “Rat alpha thrombin inhibition, slope normalized to DMSO” value (rat α-thrombin; [4]) was 100.6 and 96.9 and 105.9, the “Rat alpha thrombin inhibition, slope normalized to DMSO” value (rat α-thrombin; [5]) was 11.6 and 13.6 and 8.8 and the “Rat alpha thrombin inhibition, slope normalized to DMSO” value (rat α-thrombin; [6]) was 110.9 and 102.8 and 91.9. For the same compound, the “Rat alpha thrombin inhibition, slope normalized to DMSO” value (rat α-thrombin; [7]) was 29.5 and 31.9 and 33.8, the “Rat alpha thrombin inhibition, slope normalized to DMSO” value (rat α-thrombin; [8]) was 101.7 (2×) and 104.1 and the “Rat alpha thrombin inhibition, slope normalized to DMSO” value (rat α-thrombin; [9]) was 57.9 and 68.0 and 74.9. For the same compound, the “Rat alpha thrombin inhibition, slope normalized to DMSO” value (rat α-thrombin; [10]) was 95.3 and 93.1 and 98.0, the “Rat alpha thrombin inhibition, slope normalized to DMSO” value (rat α-thrombin; [11]) was 87.6 and 90.4 and 103.1 and the “Rat alpha thrombin inhibition, slope normalized to DMSO” value (rat α-thrombin; [12]) was 10.8 and 13.8 and 2.6. For the same compound, the “Rat alpha thrombin inhibition, slope normalized to DMSO” value (rat α-thrombin; [13]) was 84.4 and 99.6 and 89.5, the “Rat alpha thrombin inhibition, slope normalized to DMSO” value (rat α-thrombin; [14]) was 19.8 and 21.4 and 23.1 and the “Rat alpha thrombin inhibition, slope normalized to DMSO” value (rat α-thrombin; [15]) was 100.0 and 99.2 and 101.2. For the same compound, the “Rat alpha thrombin inhibition, slope normalized to DMSO” value (rat α-thrombin; [16]) was 59.7 and 45.3 and 63.3, the “Rat alpha thrombin inhibition, slope normalized to DMSO” value (rat α-thrombin; [17]) was 96.9 and 93.8 and 94.4 and the “Rat alpha thrombin inhibition, slope normalized to DMSO” value (rat α-thrombin; [18]) was 85.6 and 100.2 and 83.3. For the same compound, the “Rat alpha thrombin inhibition, slope normalized to DMSO” value (rat α-thrombin; [19]) was 7.6 and 10.7 and 9.3, the “Rat alpha thrombin inhibition, slope normalized to DMSO” value (rat α-thrombin; [20]) was 100.9 and 96.3 and 102.1 and the “Rat alpha thrombin inhibition, slope normalized to DMSO” value (rat α-thrombin; [21]) was 12.6 and 18.3 and 16.4. The “Rat alpha thrombin inhibition, slope normalized to DMSO” value (rat α-thrombin; [22]) was 96.9 and 104.7 and 92.6, the “Rat alpha thrombin inhibition, slope normalized to DMSO” value (rat α-thrombin; [23]) was 48.7 and 32.2 and 42.2 and the “Rat alpha thrombin inhibition, slope normalized to DMSO” value (rat α-thrombin; [24]) was 95.8 and 96.9 and 102.0. For the same compound, the “Rat alpha thrombin inhibition, slope normalized to DMSO” value (rat α-thrombin; [25]) was 78.0 and 74.1 and 90.2, the IC50 (rat α-thrombin; single replicates R1-R3, read-out: Rat alpha thrombin inhibition, IC50) was 0.451 µM and 0.308 µM and 0.605 µM and the Ki (rat α-thrombin; single replicates R1-R3, read-out: Rat alpha thrombin inhibition, Ki) was 250 nM (2×) and 171 nM (2×) and 335 nM (2×). For the same compound, the Ki (human α-thrombin; average of R1-R3, read-out: Human alpha thrombin inhibition, Ki Average) was 1.16 µM, the “Human alpha thrombin inhibition, slope normalized to DMSO” value (human α-thrombin; [2]) was 21.2 and 22.5 and 13.5 and the “Human alpha thrombin inhibition, slope normalized to DMSO” value (human α-thrombin; [3]) was 107.9 and 108.1 and 100.7. The “Human alpha thrombin inhibition, slope normalized to DMSO” value (human α-thrombin; [4]) was 45.0 and 106.0 and 79.1, the “Human alpha thrombin inhibition, slope normalized to DMSO” value (human α-thrombin; [5]) was 20.5 and 29.2 and 28.2 and the “Human alpha thrombin inhibition, slope normalized to DMSO” value (human α-thrombin; [6]) was 70.8 and 98.2 and 101.6. For the same compound, the “Human alpha thrombin inhibition, slope normalized to DMSO” value (human α-thrombin; [7]) was 57.8 and 72.9 and 62.5, the “Human alpha thrombin inhibition, slope normalized to DMSO” value (human α-thrombin; [8]) was 100.2 and 106.6 and 100.4 and the “Human alpha thrombin inhibition, slope normalized to DMSO” value (human α-thrombin; [9]) was 100.6 and 90.9 and 89.3. The “Human alpha thrombin inhibition, slope normalized to DMSO” value (human α-thrombin; [10]) was 109.7 and 103.6 and 106.2, the “Human alpha thrombin inhibition, slope normalized to DMSO” value (human α-thrombin; [11]) was 86.3 and 104.2 and 79.8 and the “Human alpha thrombin inhibition, slope normalized to DMSO” value (human α-thrombin; [12]) was 13.8 and 27.1 and 20.7. The “Human alpha thrombin inhibition, slope normalized to DMSO” value (human α-thrombin; [13]) was 101.3 and 97.0 and 101.4, the “Human alpha thrombin inhibition, slope normalized to DMSO” value (human α-thrombin; [14]) was 19.7 and 40.6 and 23.4 and the “Human alpha thrombin inhibition, slope normalized to DMSO” value (human α-thrombin; [15]) was 71.5 and 115.8 and 100.2. The “Human alpha thrombin inhibition, slope normalized to DMSO” value (human α-thrombin; [16]) was 64.9 and 85.6 and 86.8, the “Human alpha thrombin inhibition, slope normalized to DMSO” value (human α-thrombin; [17]) was 107.4 and 99.0 and 99.6 and the “Human alpha thrombin inhibition, slope normalized to DMSO” value (human α-thrombin; [18]) was 103.0 and 102.1 and 95.7. The “Human alpha thrombin inhibition, slope normalized to DMSO” value (human α-thrombin; [19]) was 20.6 and 21.0 and 15.4, the “Human alpha thrombin inhibition, slope normalized to DMSO” value (human α-thrombin; [20]) was 86.7 and 105.1 and 95.4 and the “Human alpha thrombin inhibition, slope normalized to DMSO” value (human α-thrombin; [21]) was 41.3 and 33.5 and 28.3. The “Human alpha thrombin inhibition, slope normalized to DMSO” value (human α-thrombin; [22]) was 100.0 and 108.8 and 108.6, the “Human alpha thrombin inhibition, slope normalized to DMSO” value (human α-thrombin; [23]) was 74.4 and 82.4 and 81.1 and the “Human alpha thrombin inhibition, slope normalized to DMSO” value (human α-thrombin; [24]) was 104.7 and 102.3 and 88.7. The “Human alpha thrombin inhibition, slope normalized to DMSO” value (human α-thrombin; [25]) was 98.8 and 95.6 and 95.8, the IC50 (human α-thrombin; single replicates R1-R3, read-out: Human alpha thrombin inhibition, IC50) was 1.3 µM and 1.67 µM and 1.53 µM and the Ki (human α-thrombin; single replicates R1-R3, read-out: Human alpha thrombin inhibition, Ki) was 1 µM (2×) and 1.29 µM (2×) and 1.18 µM (2×). For the same compound, the “PAMPA permeability: % permeability” value ([1]; 50 μM, 12–18 h, acceptor concentration relative to equilibrium) was 48 ± 19%, the “Permeability% (single replicates R1–R3)” value ([1]; 50 μM, 13 h (Fig. 5d)) was 26.09% and 53.35% and 63.35% and the “Permeability% Average” value ([1]; 50 μM, 13 h (Fig. 5d)) was 47.6%. It also gave a Papp at 50 μM ([1]; PAMPA, pH 7.4) of 5.62 ×10⁻⁶ cm/s.
